Results reported in patent US5750648A, “Retroviral protease inhibitors and combinations thereof” (G.D. Searle & Co., priority 1994, dated 1998).
Counter-ions that a name gives are not always drawn.

Experiments:
HIV protease = HIV protease (Human immunodeficiency virus type 1 group M subtype B, UniProt P04585); assay: HIV protease enzyme assay (fluorescent substrate 2-aminobenzoyl-Ile-Nle-Phe(p-NO2)-Gln-ArgNH2); type: biochemical; details: for IC50: concentration at which the inhibitor reduces enzyme activity by 50%, enzyme about 12.3 nanomolar, substrate about 80 μM, pH 6.4
Source text: The compounds of the present invention are advantageously effective HIV protease inhibitors. Utilizing an enzyme assay as described below, the compounds set forth in the examples herein disclosed inhibited the HIV enzyme. The preferred compounds of the present invention and their calculated IC50 (the concentration at which the inhibitor compound reduces enzyme activity by 50%) values are shown in Table 2.
The enzyme method is as follows. The substrate is 2-aminobenzoyl-Ile-Nle-Phe(p-NO2)-Gln-ArgNH2. The positive control is MVT-101 (Miller, M. et al, Science, 246, 1149 (1989)). The assay buffer is 20 mM sodium phosphate, pH 6.4, 20% glycerol, 1 mM EDTA, 1 mM DTT and 0.1% CHAPS. The substrate is dissolved in DMSO, then diluted 10 fold in assay buffer. Final substrate concentration in the assay is about 80 μM. HIV protease is diluted in the assay buffer to a final enzyme concentration of about 12.3 nanomolar, based on a molecular weight of 10,780.
The final concentration of DMSO is about 14% and the final concentration of glycerol is about 18%. The test compound is dissolved in DMSO and diluted in DMSO to ten times (10×) the test concentration. Ten microliters (10 μL) of the enzyme preparation is added, the materials mixed and then the mixture is incubated at ambient temperature for 15 minutes. The enzyme reaction is initiated by the addition of 40 μL of substrate. The increase in fluorescence is monitored at 4 time points (0, 8, 16 and 24 minutes) at ambient temperature. Each assay is carried out in duplicate wells.

HIV-1 in CEM cells = assay: CEM cell assay, HIV inhibition in acutely infected cells (MTT); type: cell-based; details: Human immunodeficiency virus 1, CCRF-CEM, 168 h; HIV-1 infected CEM cells, 7 days
Procedure: The effectiveness of selected compounds of the present invention were determined in the above-described enzyme assay and in a CEM cell assay. The HIV inhibition assay method of acutely infected cells is an automated tetrazolium based calorimetric assay essentially that reported by Pauwles et al, J. Virol. Methods 20, 309-321 (1988). Assays were performed in 96-well tissue culture plates. CEM cells, a CD4+ cell line, were grown in RPMI-1640 medium (Gibco) supplemented with a 10% fetal calf serum and were then treated with polybrene (2 μg/ml). An 80 μl volume of medium containing 1×10^4 cells was dispensed into each well of the tissue culture plate. To each well was added a 100 μl volume of test compound dissolved in tissue culture medium (or medium without test compound as a control) to achieve the desired final concentration and the cells were incubated at 37° C. for 1 hour. A frozen culture of HIV-1 was diluted in culture medium to a concentration of […] (TCID50=the dose of virus that infects 50% of cells in tissue culture), and a 20 μL volume of the virus sample (containing 1000 TCID50 of virus) was added to wells containing test compound and to wells containing only medium (infected control cells). Several wells received culture medium without virus (uninfected control cells). Likewise, the intrinsic toxicity of the test compound was determined by adding medium without virus to several wells containing test compound. In summary, the tissue culture plates contained the following experiments: In experiments 2 and 4 the final concentrations of test compounds were 1, 10, 100 and 500 μg/ml. Either azidothymidine (AZT) or dideoxyinosine (ddI) was included as a positive drug control. […] DMSO was added to all control wells at an appropriate concentration. Following the addition of virus, cells were incubated at 37° C. in a humidified, 5% CO2 atmosphere for 7 days. Test compounds could be added on days 0, 2 and 5 if desired. On day 7, post-infection, the cells in each well were resuspended and a 100 μl sample of each cell suspension was removed for assay. A 20 μL volume of a 5 mg/ml solution of 3-(4,5-dimethylthiazol-2-yl)-2,5-diphenyltetrazolium bromide (MTT) was added to each 100 μL cell suspension, and the cells were incubated for 4 hours at […] in a 5% CO2 environment. […] To each sample was added 100 μl of 10% sodium dodecylsulfate in 0.01N HCl to lyse the cells, and samples were incubated overnight. The absorbance at 590 nm was determined for each sample using a Molecular Devices microplate reader. Absorbance values for each set of wells is compared to assess viral control infection, uninfected control cell response as well as test compound by cytotoxicity and antiviral efficacy.

| SMILES | IC50 (HIV protease) | EC50 (HIV-1 in CEM cells) | inhibition at 10 µM (HIV protease; @ 10 μM, read-out: inhibition of HIV protease (IC50)) |
| --- | --- | --- | --- |
| CC(C)CCN(C[C@@H](O)[C@H](Cc1ccccc1)NC(=O)[C@@H](NC(=O)[C@@H](C)N(C)C(=O)OCc1ccccc1)C(C)(C)C)C(=O)NC(C)(C)C [Example 15, (2R, 3S)-3-(N-benzyloxycarbonyl-N-methyl-D-alaninyl-L-tert-butylglycinyl)amino-1-[N-isoamyl-N-(tert-butylcarbamoyl)]amino-4-phenyl-2-butanol] | 70 nM | – | – |
| CC(C)CCN(C[C@@H](O)[C@H](Cc1ccccc1)NC(=O)[C@@H](NC(=O)[C@@H]1CCCN1C(=O)OCc1ccccc1)C(C)(C)C)C(=O)NC(C)(C)C [Example 19, (2R, 3S)-3-(N-benzyloxycarbonyl-L-prolyl-L-tert-butylglycinyl) amino-1-[N-isoamyl-N-(tert-butylcarbamoyl)]amino-4-phenyl-2-butanol] | 2200 nM | – | – |
| CNCC(=O)N[C@H](C(=O)N[C@@H](Cc1ccccc1)[C@H](O)CN(CCC(C)C)C(=O)NC(C)(C)C)C(C)(C)SC [5 (Part I), (2R, 3S)-3-(N-methylaminoacetyl-S-methyl-L-penicillaminyl)amido-1-[N-isoamyl-N-(tert-butylcarbamoyl)]amino-4-phenyl-2-butanol] | 14 nM | – | – |
| CC[C@H](C)[C@H](NC(=O)CN(C)C)C(=O)N[C@@H](Cc1ccccc1)[C@H](O)CN(CCC(C)C)C(=O)NC(C)(C)C [Example 3, (2R,3S)-3-(N,N-dimethylaminoacetyl-L-isoleucinyl)amido-1-[N-isoamyl-N-(tert-butylcarbamoyl)]amino-4-phenyl-2-butanol] | 14 nM | 66 nM | – |
| CC[C@H](C)[C@H](NC(=O)[C@@H]1CCCN1)C(=O)N[C@@H](Cc1ccccc1)[C@H](O)CN(CCC(C)C)C(=O)NC(C)(C)C [Example 25, (2R, 3S)-3-(L-prolyl-L-isoleucinyl)amino-1-[N-isoamyl-N-(tert-butylcarbamoyl)]amino-4-phenyl-2-butanol] | 51 nM | – | – |
| CC[C@H](C)[C@H](NC(=O)[C@@H](C)N(C)C(=O)OCc1ccccc1)C(=O)N[C@@H](Cc1ccccc1)[C@H](O)CN(CCC(C)C)C(=O)NC(C)(C)C [Example 22, (2R, 3S)-3-(N-benzyloxycarbonyl-N-methyl-D-alaninyl-L-isoleucinyl)amino-1-[N-isoamyl-N-(tert-butylcarbamoyl)]amino-4-phenyl-2-butanol] | 370 nM | – | – |
| CN[C@@H](C)C(=O)N[C@H](C(=O)N[C@@H](Cc1ccccc1)[C@H](O)CN(CCC(C)C)C(=O)NC(C)(C)C)C(C)(C)C [Example 14, (2R, 3S)-3-(N-methyl-L-alaninyl-L-tert-butylglycinyl)amino-1-[N-isoamyl-N-(tert-butylcarbamoyl)]amino-4-phenyl-2-butanol] | 8 nM | 0.096 µg/mL | – |
| CC(C)CCN(C[C@@H](O)[C@H](Cc1ccccc1)NC(=O)[C@@H](NC(=O)[C@H](C)N(C)C(=O)OCc1ccccc1)C(C)(C)C)C(=O)NC(C)(C)C [Example 13, (2R, 3S)-3-(N-benzyloxycarbonyl-N-methyl-L-alaninyl-L-tert-butylglycinyl)amino-1-[N-isoamyl-N-(tert-butylcarbamoyl)]amino-4-phenyl-2-butanol] | 14 nM | 0.034 µg/mL | – |
| CC(C)CCN(C[C@@H](O)[C@H](Cc1ccccc1)NC(=O)[C@@H](NC(=O)CNC(=O)OC(C)(C)C)C(C)(C)C)C(=O)NC(C)(C)C [Example 17, (2R, 3S)-3-(N-tert-butoxycarbonyl-glycinyl-L-tert-butylglycinyl) amino-1-[N-isoamyl-N-(tert-butylcarbamoyl)]amino-4-phenyl-2-butanol] | 10 nM | – | – |
| CC(C)CCN(C[C@@H](O)[C@H](Cc1ccccc1)NC(=O)[C@@H](NC(=O)CN)C(C)(C)C)C(=O)NC(C)(C)C [Example 18, (2R, 3S)-3-(glycinyl-L-tert-butylglycinyl)amino-1-[N-isoamyl-N-(tert-butylcarbamoyl)]amino-4-phenyl-2-butanol Hydrochloride Salt] | 10 nM | 0.038 µg/mL | – |
| CC(C)CCN(C[C@@H](O)[C@H](Cc1ccccc1)NC(=O)[C@@H](NC(=O)[C@@H]1CCCN1)C(C)(C)C)C(=O)NC(C)(C)C [Example 20, (2R, 3S)-3-(L-prolyl-L-tert-butylglycinyl)amino-1-[N-isoamyl-N-(tert-butylcarbamoyl)]amino-4-phenyl-2-butanol] | 9 nM | – | – |
| CC[C@H](C)[C@H](NC(=O)[C@@H]1CCCN1C(=O)OCc1ccccc1)C(=O)N[C@@H](Cc1ccccc1)[C@H](O)CN(CCC(C)C)C(=O)NC(C)(C)C [Example 24, (2R, 3S)-3-(N-benzyloxycarbonyl-L-prolyl-L-isoleucinyl)amino-1-[N-isoamyl-N-(tert-butylcarbamoyl)]amino-4-phenyl-2-butanol] | 520 nM | – | – |
| CN[C@H](C)C(=O)N[C@H](C(=O)N[C@@H](Cc1ccccc1)[C@H](O)CN(CCC(C)C)C(=O)NC(C)(C)C)C(C)(C)C [Example 16, (2R, 3S)-3-(N-methyl-D-alaninyl-L-tert-butylglycinyl)amino-1-[N-isoamyl-N-(tert-butylcarbamoyl)]amino-4-phenyl-2-butanol] | 18 nM | 0.059 µg/mL | – |
| CC(C)CCN(C[C@@H](O)[C@H](Cc1ccccc1)NC(=O)[C@@H](NC(=O)[C@@H]1CCCN1C(=O)OC(C)(C)C)C(C)(C)C)C(=O)NC(C)(C)C [Example 21, (2R, 3S)-3-(N-tert-butoxycarbonyl-L-prolyl-L-tert-butylglycinyl) amino-1-[N-isoamyl-N-(tert-butylcarbamoyl)]amino-4-phenyl-2-butanol] | – | – | 61% |
| CC[C@H](C)[C@H](NC(=O)[C@@H](C)NC)C(=O)N[C@@H](Cc1ccccc1)[C@H](O)CN(CCC(C)C)C(=O)NC(C)(C)C [Example 23, (2R, 3S)-3-(N-methyl-D-alaninyl-L-isoleucinyl)amino-1-[N-isoamyl-N-(tert-butylcarbamoyl)]amino-4-phenyl-2-butanol] | 79 nM | – | – |
